Data as given in patent publication US10259808B2 (Genentech, Inc., priority 2015, dated 2019).

Biological target: T1, RORc ligand binding domain (Homo sapiens, UniProt P51449)
T1 sequence (P51449 269-508 limits assumed): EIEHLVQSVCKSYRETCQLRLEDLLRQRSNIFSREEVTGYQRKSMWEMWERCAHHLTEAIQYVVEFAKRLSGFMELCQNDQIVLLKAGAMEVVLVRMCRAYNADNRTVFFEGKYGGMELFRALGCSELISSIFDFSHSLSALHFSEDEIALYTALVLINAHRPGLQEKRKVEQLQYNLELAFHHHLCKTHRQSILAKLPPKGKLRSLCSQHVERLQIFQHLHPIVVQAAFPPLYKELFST
Assay: In vitro RORc ligand binding assay (25-[3H]hydroxycholesterol displacement)

SMILES	IC50
C[C@H]1CC[C@H](c2ccccc2)S(=O)(=O)N1Cc1cc(F)c([C@]2(c3n[nH]c(=O)o3)C[C@](C)(F)C2)cc1F [Example 139, trans 5-[1-[2,5-difluoro-4-[[(3S,6R)-3-methyl-1,1-dioxo-6-phenyl-thiazinan-2-yl]methyl]phenyl]-3-fluoro-3-methyl-cyclobutyl]-3H-1,3,4-oxadiazol-2-one]	3.9 nM
C[C@H]1CC[C@H](c2ccccc2)S(=O)(=O)N1Cc1cc(F)c(C2(NCc3cnccn3)COC2)cc1F [Example 89, 3-[2,5-difluoro-4-[[(3S,6R)-3-methyl-1,1-dioxo-6-phenyl-thiazinan-2-yl]methyl]phenyl]-N-(pyrazin-2-ylmethyl)oxetan-3-amine]	7.1 nM
C[C@H]1CC[C@H](c2ccccc2)S(=O)(=O)N1Cc1cc(F)c([C@]2(CN3C(=O)CNC3=O)C[C@](C)(O)C2)cc1F (racemic) [Example 179, 3-[[1-[2,5-difluoro-4-[[rac-(3S,6R)-3-methyl-1,1-dioxo-6-phenyl-thiazinan-2-yl]methyl]phenyl]-3-hydroxy-3-methyl-cyclobutyl]methyl]imidazolidine-2,4-dione]	6900 nM
C[C@H]1CC[C@H](c2ccccc2)S(=O)(=O)N1Cc1ccc(C2(OCc3nnc[nH]3)COC2)cc1F [Example 59, (3S,6R)-2-[[2-fluoro-4-[3-(4H-1,2,4-triazol-3-ylmethoxy)oxetan-3-yl]phenyl]methyl]-3-methyl-6-phenyl-thiazinane 1,1-dioxide]	23.2 nM
COC1(OC)CC(c2n[nH]c(=O)o2)(c2cc(F)c(CN3[C@@H](C)CC[C@H](c4ccccc4)S3(=O)=O)cc2F)C1 [Example 120, 5-[1-[2,5-difluoro-4-[[(3S,6R)-3-methyl-1,1-dioxo-6-phenyl-thiazinan-2-yl]methyl]phenyl]-3,3-dimethoxy-cyclobutyl]-3H-1,3,4-oxadiazol-2-one]	5.7 nM
C[C@H]1CC[C@H](c2ccccc2)S(=O)(=O)N1Cc1cc(F)c(C2(c3ncn(CC(N)=O)n3)CCOCC2)cc1F [Example 53, 2-[3-[4-[2,5-difluoro-4-[[(3S,6R)-3-methyl-1,1-dioxo-6-phenyl-thiazinan-2-yl]methyl]phenyl]tetrahydropyran-4-yl]-1,2,4-triazol-1-yl]acetamide]	103 nM
C[C@H]1CC[C@H](c2ccccc2)S(=O)(=O)N1Cc1cc(F)c([C@]2(c3cc(=O)n(C)o3)C[C@](C)(O)C2)cc1F [Example 161, 5-[1-[2,5-difluoro-4-[[(3S,6R)-3-methyl-1,1-dioxo-6-phenyl-thiazinan-2-yl]methyl]phenyl]-3-hydroxy-3-methyl-cyclobutyl]-2-methyl-isoxazol-3-one]	5.2 nM
C[C@H]1CC[C@H](c2ccccc2)S(=O)(=O)N1Cc1ccc(C2(CN3CCOCC3)CCOCC2)cc1F [Example 24]	11.1 nM
C[C@H]1CC[C@H](c2ccccc2)S(=O)(=O)N1Cc1ccc(C2(n3cnnc3)CCOCC2)cc1F [Example 45, (3S,6R)-2-[[2-fluoro-4-[4-(1,2,4-triazol-4-yl)tetrahydropyran-4-yl]phenyl]methyl]-3-methyl-6-phenyl-thiazinane 1,1-dioxide]	87.7 nM
C[C@H]1CC[C@H](c2ccccc2)S(=O)(=O)N1Cc1cc(F)c([C@]2(c3nn(C)c(=O)o3)C[C@](C)(O)C2)cc1F [Example 151, trans 5-[1-[2,5-difluoro-4-[[(3S,6R)-3-methyl-1,1-dioxo-6-phenyl-thiazinan-2-yl]methyl]phenyl]-3-hydroxy-3-methyl-cyclobutyl]-3-methyl-1,3,4-oxadiazol-2-one]	6.9 nM
C[C@H]1CC[C@H](c2ccccc2)S(=O)(=O)N1Cc1cc(F)c(C2(NCc3cc(=O)[nH]o3)CCOCC2)cc1F [Example 82, 5-[[[4-[2,5-difluoro-4-[[(3S,6R)-3-methyl-1,1-dioxo-6-phenyl-thiazinan-2-yl]methyl]phenyl]tetrahydropyran-4-yl]amino]methyl]isoxazol-3-one]	5.7 nM
C[C@H]1CC[C@H](c2ccccc2)S(=O)(=O)N1Cc1cc(F)c([C@]2(c3noc(=O)[nH]3)C[C@@](C)(O)C2)cc1F (racemic) [Example 175, 3-[1-[2,5-difluoro-4-[[rac-(3S,6R)-3-methyl-1,1-dioxo-6-phenyl-thiazinan-2-yl]methyl]phenyl]-3-hydroxy-3-methyl-cyclobutyl]-4H-1,2,4-oxadiazol-5-one]	62 nM
C[C@H]1CC[C@H](c2ccccc2)S(=O)(=O)N1Cc1cc(F)c(C2(C(=O)n3cccn3)CCOCC2)cc1F [Example 39, [4-[2,5-difluoro-4-[[(3S,6R)-3-methyl-1,1-dioxo-6-phenyl-thiazinan-2-yl]methyl]phenyl]tetrahydropyran-4-yl]-pyrazol-1-yl-methanone]	27.3 nM
C[C@H]1CC[C@H](c2ccccc2)S(=O)(=O)N1Cc1cc(F)c(C2(c3n[nH]c(=O)o3)CC(=O)C2)cc1F [Example 119, 5-[1-[2,5-difluoro-4-[[(3S,6R)-3-methyl-1,1-dioxo-6-phenyl-thiazinan-2-yl]methyl]phenyl]-3-oxo-cyclobutyl]-3H-1,3,4-oxadiazol-2-one]	1.8 nM
C[C@H]1CC[C@H](c2ccccc2)S(=O)(=O)N1Cc1ccc(C2(NCc3ncc[nH]3)CCOCC2)cc1F [Example 64, 4-[3-fluoro-4-[[(3S,6R)-3-methyl-1,1-dioxo-6-phenyl-thiazinan-2-yl]methyl]phenyl]-N-(1H-imidazol-2-ylmethyl)tetrahydropyran-4-amine]	10.1 nM
C[C@H]1CC[C@H](c2ccccc2)S(=O)(=O)N1Cc1ccc(C2(NCc3ccc(=O)[nH]c3)CCOCC2)cc1F [Example 68, 5-[[[4-[3-fluoro-4-[[(3S,6R)-3-methyl-1,1-dioxo-6-phenyl-thiazinan-2-yl]methyl]phenyl]tetrahydropyran-4-yl]amino]methyl]-1H-pyridin-2-one]	38.9 nM
C[C@H]1CC[C@H](c2ccccc2)S(=O)(=O)N1Cc1cc(F)c(C2(c3n[nH]c(=O)o3)CCOCC2)cc1F [Example 58, 5-[4-[2,5-difluoro-4-[[(3S,6R)-3-methyl-1,1-dioxo-6-phenyl-thiazinan-2-yl]methyl]phenyl]tetrahydropyran-4-yl]-3H-1,3,4-oxadiazol-2-one]	6.6 nM
C[C@H]1CC[C@H](c2ccccc2)S(=O)(=O)N1Cc1cc(F)c(C2(c3ncn(CCO)n3)CCOCC2)cc1F [Example 54, 2-[3-[4-[2,5-difluoro-4-[[(3S,6R)-3-methyl-1,1-dioxo-6-phenyl-thiazinan-2-yl]methyl]phenyl]tetrahydropyran-4-yl]-1,2,4-triazol-1-yl]ethanol]	57 nM
C[C@H]1CC[C@H](c2ccccc2)S(=O)(=O)N1Cc1cc(F)c([C@]2(c3c[nH]c(=O)o3)C[C@](C)(O)C2)cc1F [Example 158, 5-[1-[2,5-difluoro-4-[[(3S,6R)-3-methyl-1,1-dioxo-6-phenyl-thiazinan-2-yl]methyl]phenyl]-3-hydroxy-3-methyl-cyclobutyl]-3H-oxazol-2-one]	3.2 nM
C[C@H]1CC[C@H](c2ccccc2)S(=O)(=O)N1Cc1cc(F)c(C2(C(=O)N3CC[C@@H](O)C3)CCOCC2)cc1F [Example 32, [4-[2,5-difluoro-4-[[(3S,6R)-3-methyl-1,1-dioxo-6-phenyl-thiazinan-2-yl]methyl]phenyl]tetrahydropyran-4-yl]-[(3R)-3-hydroxypyrrolidin-1-yl]methanone]	79 nM
C[C@H]1CC[C@H](c2ccccc2)S(=O)(=O)N1Cc1cc(F)c([C@]2(c3nn(C)c(=O)o3)C[C@@H](O)C2)cc1F [Example 146, cis 5-[1-[2,5-difluoro-4-[[(3S,6R)-3-methyl-1,1-dioxo-6-phenyl-thiazinan-2-yl]methyl]phenyl]-3-hydroxy-cyclobutyl]-3-methyl-1,3,4-oxadiazol-2-one]	17.6 nM
C[C@H]1CC[C@H](c2ccccc2)S(=O)(=O)N1Cc1cc(F)c([C@]2(c3n[nH]c(=O)o3)C[C@@](O)(C(F)(F)F)C2)cc1F [Example 149, trans 5-[1-[2,5-difluoro-4-[[(3S,6R)-3-methyl-1,1-dioxo-6-phenyl-thiazinan-2-yl]methyl]phenyl]-3-hydroxy-3-(trifluoromethyl)cyclobutyl]-3H-1,3,4-oxadiazol-2-one]	5.3 nM
Cc1cc(CNC2(c3cc(F)c(CN4[C@@H](C)CC[C@H](c5ccccc5)S4(=O)=O)cc3F)COC2)no1 [Example 95, 3-[2,5-difluoro-4-[[(3S,6R)-3-methyl-1,1-dioxo-6-phenyl-thiazinan-2-yl]methyl]phenyl]-N-[(5-methylisoxazol-3-yl)methyl]oxetan-3-amine]	20.6 nM
C[C@H]1CC[C@H](c2ccccc2)S(=O)(=O)N1Cc1cc(F)c(C2(Nc3cnccn3)CCOCC2)cc1F [Example 118, N-[4-[2,5-difluoro-4-[[(3S,6R)-3-methyl-1,1-dioxo-6-phenyl-thiazinan-2-yl]methyl]phenyl]tetrahydropyran-4-yl]pyrazin-2-amine]	5.2 nM
C[C@H]1CC[C@H](c2ccccc2)S(=O)(=O)N1Cc1cc(F)c([C@]2(Cn3ncccc3=O)C[C@](C)(O)C2)cc1F (racemic) [Example 183, 2-[[1-[2,5-difluoro-4-[[rac-(3S,6R)-3-methyl-1,1-dioxo-6-phenyl-thiazinan-2-yl]methyl]phenyl]-3-hydroxy-3-methyl-cyclobutyl]methyl]pyridazin-3-one]	170 nM
CC(=O)OCc1nc(C2(c3ccc(CN4[C@@H](C)CC[C@H](c5ccccc5)S4(=O)=O)c(F)c3)CCOCC2)no1 [Example 27, [3-[4-[3-fluoro-4-[[(3S,6R)-3-methyl-1,1-dioxo-6-phenyl-thiazinan-2-yl]methyl]phenyl]tetrahydropyran-4-yl]-1,2,4-oxadiazol-5-yl]methyl acetate]	109 nM
CO[C@H]1C[C@@](c2n[nH]c(=O)o2)(c2cc(F)c(CN3[C@@H](C)CC[C@H](c4ccccc4)S3(=O)=O)cc2F)C1 [Example 154, trans 5-[1-[2,5-difluoro-4-[[(3S,6R)-3-methyl-1,1-dioxo-6-phenyl-thiazinan-2-yl]methyl]phenyl]-3-methoxy-cyclobutyl]-3H-1,3,4-oxadiazol-2-one]	6.2 nM
